Data set [1] has as its system Zn^+2 in fibrosarcoma cells. Kind of data set: Imaging of Zn^+2 in fibrosarcoma cells. Particulars: added to any of the wells with phosphonate and zinc. Format: cell-based.

Where a name gives a salt, the structure may show the parent alone.

Consider `c1ccc(CN(CCN(Cc2ccccn2)Cc2ccccn2)Cc2ccccn2)nc1` [TPEN, N,N,N′,N′-tetrakis(2-pyridylmethyl)ethylenediamine], for which the “effect of excess chelator on the cell fluorescence” value in data set [1] is reported as “very significant quenching of the fluorescence”.

With `CCOP(=O)(COc1ccc2c(c1)[nH]c1ccccc12)OCC` [Example 8, diethyl-2-carbazolyloxymethylphosphonate], the melting point was determined as 159 °C. Besides, the uptake into cells entry in the data set on Fibrosarcoma cells is listed as “taken up in the cytoplasm within the fibrosarcoma cells”. The compound `O=P(O)(O)COc1ccc2c(c1)[nH]c1ccccc12` [Example 9, 2-carbazolyloxymethyl phosphonic acid] registered a melting point of 291 °C.

Regarding `Cc1cc(=O)oc2cc(OCP(=O)(O)O)ccc12` [di-sodium salt of Example 5, 4-methylcoumarin 7-oxymethylphosphonic acid], in the data set on Fibrosarcoma cells, the uptake into cells entry was “taken up in the cytoplasm within the fibrosarcoma cells”. With `O=P([O-])([O-])Cn1c2ccccc2c2ccccc21.[Na+].[Na+]` [di sodium N-carbazolylmethylphosphonate], the “penetration of brain cell types and regions” value in the data set on Slices of rat brain is “went into the endothelial and neuronal cells”. Also, the uptake into cells entry with Fibrosarcoma cells was “taken up in the cytoplasm within the fibrosarcoma cells”. `O=P(O)(O)COc1cccc2cccnc12` (as salt: salt) [Example 2, 8-quinolyloxy methylphosphonic acid] returned a melting point of 285 to 288 °C.

For orientation: melting point means the temperature of the solid-liquid transition.
